In PubChem BioAssay (NCI):
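In this assay, cells in 96-well plates receive the compound at five concentrations for 48 hours. Endpoints are linearly interpolated between the surrounding concentrations. Abbreviation: GI50, concentration required for 50% inhibition of growth. TGI: total growth inhibition.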

Experiments:
Assay in all cases: NCI tumour cell line growth inhibition, 48 h; in the data active = GI50 below about 0.43 µM; inactive = the rest
[1] = test system: 786-0 renal
[2] = test system: A498 renal
[3] = test system: ACHN renal
[4] = test system: CAKI-1 renal
[5] = test system: CCRF-CEM leukemia
[6] = test system: COLO 205 colon
[7] = test system: DU-145 prostate
[8] = test system: EKVX NSCLC
[9] = test system: HCC-2998 colon
[10] = test system: HCT-116 colon
[11] = test system: HCT-15 colon
[12] = test system: HL-60(TB) leukemia
[13] = test system: HOP-62 NSCLC
[14] = test system: HOP-92 NSCLC
[15] = test system: HS 578T breast
[16] = test system: HT29 colon
[17] = test system: IGROV1 ovarian
[18] = test system: K-562 leukemia
[19] = test system: KM12 colon
[20] = test system: LOX IMVI melanoma
[21] = test system: M14 melanoma
[22] = test system: MALME-3M melanoma
[23] = test system: MCF7 breast
[24] = test system: MDA-MB-231 breast
[25] = test system: MDA-N
[26] = test system: MOLT-4 leukemia
[27] = test system: NCI-H226 lung
[28] = test system: NCI-H460 lung
[29] = test system: NCI-H522 lung
[30] = test system: NCI/ADR-RES ovarian
[31] = test system: OVCAR-3 ovarian
[32] = test system: OVCAR-8 ovarian
[33] = test system: PC-3 prostate
[34] = test system: RPMI-8226 leukemia
[35] = test system: RXF 393 renal
[36] = test system: SF-268 CNS
[37] = test system: SF-295 CNS
[38] = test system: SF-539 CNS
[39] = test system: SK-MEL-2 melanoma
[40] = test system: SK-MEL-28 melanoma
[41] = test system: SK-MEL-5 melanoma
[42] = test system: SK-OV-3 ovarian
[43] = test system: SN12C renal
[44] = test system: SNB-19 CNS
[45] = test system: SNB-75 CNS
[46] = test system: SR leukemia
[47] = test system: SW-620 colon
[48] = test system: T-47D breast
[49] = test system: TK-10 renal
[50] = test system: U251 CNS
[51] = test system: UACC-62 melanoma
[52] = test system: UO-31 renal
[53] = test system: A549 NSCLC
[54] = test system: BT-549 breast
[55] = test system: MDA-MB-435
[56] = test system: NCI-H23 lung
[57] = test system: OVCAR-4 ovarian
[58] = test system: OVCAR-5 ovarian
[59] = test system: UACC-257 melanoma

COc1cc(C(SCc2ccccc2)SCc2ccccc2)ccc1O
> 10000 nM: TGI [20]
> 10 µM: TGI [1] | TGI [2] | TGI [3] | TGI [4] | TGI [5] | TGI [6] | TGI [7] | TGI [8] | TGI [9] | TGI [10] | TGI [11] | TGI [12] | TGI [13] | TGI [14] | TGI [15] | TGI [16] | TGI [17] | TGI [18] | TGI [19] | TGI [21] | TGI [22] | TGI [23] | TGI [24] | TGI [25] | TGI [26] | TGI [27] | TGI [28] | TGI [29] | TGI [30] | TGI [31] | TGI [32] | TGI [33] | TGI [34] | TGI [35] | TGI [36] | TGI [37] | TGI [38] | TGI [39] | TGI [40] | TGI [41] | TGI [42] | TGI [43] | TGI [44] | TGI [45] | TGI [46] | TGI [47] | TGI [48] | TGI [49] | TGI [50] | TGI [51] | TGI [52]

O=[N+]([O-])/C=C/c1ccc([N+](=O)[O-])cc1
14.4 µM: TGI [42]
23.7 µM: TGI [13]
3.99 µM: TGI [55]
28.1 µM: TGI [39]
5 µM: TGI [16]
inactive: GI50 [1] 2020 nM | GI50 [2] 2980 nM | GI50 [53] 3.15 µM | GI50 [3] 2080 nM | GI50 [54] 2100 nM | GI50 [4] 4.16 µM | GI50 [5] 3.63 µM | GI50 [6] 1970 nM | GI50 [7] 1960 nM | GI50 [8] 14.1 µM | GI50 [9] 1750 nM | GI50 [10] 1520 nM | GI50 [11] 2020 nM | GI50 [12] 5.38 µM | GI50 [13] 10.9 µM | GI50 [14] 13 µM | GI50 [15] 2640 nM | GI50 [16] 2070 nM | GI50 [17] 2060 nM | GI50 [18] 2400 nM | GI50 [19] 2250 nM | GI50 [20] 1320 nM | GI50 [21] 1550 nM | GI50 [22] 4.23 µM | GI50 [23] 1840 nM | GI50 [24] 2710 nM | GI50 [55] 1740 nM | GI50 [26] 5.81 µM | GI50 [27] 2060 nM | GI50 [56] 2070 nM | GI50 [28] 4.57 µM | GI50 [29] 3.83 µM | GI50 [30] 8.71 µM | GI50 [31] 1840 nM | GI50 [57] 3.65 µM | GI50 [58] 4.47 µM | GI50 [32] 3.68 µM | GI50 [33] 5.46 µM | GI50 [34] 2250 nM | GI50 [35] 1520 nM | GI50 [36] 3.65 µM | GI50 [37] 6.87 µM | GI50 [38] 2460 nM | GI50 [39] 14.3 µM | GI50 [40] 2740 nM | GI50 [41] 1760 nM | GI50 [42] 4.15 µM | GI50 [43] 2370 nM | GI50 [44] 3.53 µM | GI50 [45] 1870 nM | GI50 [46] 2290 nM | GI50 [47] 1490 nM | GI50 [48] 2780 nM | GI50 [49] 2700 nM | GI50 [50] 1780 nM | GI50 [59] 1880 nM | GI50 [51] 2090 nM | GI50 [52] 1830 nM
5.95 µM: TGI [34]
12.4 µM: TGI [18]
31.8 µM: TGI [8]
24 µM: TGI [37]
4.16 µM: TGI [3]
5.01 µM: TGI [59]
62.5 µM: TGI [26]
15.1 µM: TGI [22] | TGI [32]
4.51 µM: TGI [41]
4.02 µM: TGI [54] | TGI [45]
3.69 µM: TGI [52]
84.4 µM: TGI [5]
2.98 µM: TGI [35]
15.5 µM: TGI [58]
4.22 µM: TGI [6]
21.1 µM: TGI [4]
2730 nM: TGI [20]
3.22 µM: TGI [21]
3.28 µM: TGI [31]
14.9 µM: TGI [44]
3.52 µM: TGI [50]
4.89 µM: TGI [38]
73.8 µM: TGI [30]
3.21 µM: TGI [47]
5.2 µM: TGI [56]
4.71 µM: TGI [19]
9.03 µM: TGI [48]
24.8 µM: TGI [33]
6.19 µM: TGI [49]
3.23 µM: TGI [9]
3.08 µM: TGI [10]
28.9 µM: TGI [14]
8.73 µM: TGI [24]
12.9 µM: TGI [36]
3.77 µM: TGI [7]
22.6 µM: TGI [28]
6.83 µM: TGI [43]
5.37 µM: TGI [27]
13.1 µM: TGI [53]
22.3 µM: TGI [57]
15 µM: TGI [29]
54.8 µM: TGI [12]
8.33 µM: TGI [46]
5.29 µM: TGI [17] | TGI [23]
5.58 µM: TGI [11]
3.64 µM: TGI [1]
7.57 µM: TGI [40]
6.15 µM: TGI [51]
9.87 µM: TGI [15]
10.1 µM: TGI [2]

c1ccc(C2=C(c3ccccc3)P(c3ccccc3)C2)cc1 (stereo unspecified)
> 100 µM: TGI [1] | TGI [2] | TGI [53] | TGI [3] | TGI [4] | TGI [5] | TGI [6] | TGI [7] | TGI [9] | TGI [10] | TGI [11] | TGI [13] | TGI [14] | TGI [15] | TGI [16] | TGI [17] | TGI [19] | TGI [21] | TGI [22] | TGI [23] | TGI [24] | TGI [55] | TGI [25] | TGI [26] | TGI [27] | TGI [28] | TGI [29] | TGI [30] | TGI [31] | TGI [57] | TGI [58] | TGI [32] | TGI [33] | TGI [35] | TGI [36] | TGI [37] | TGI [38] | TGI [39] | TGI [40] | TGI [42] | TGI [43] | TGI [45] | TGI [46] | TGI [47] | TGI [48] | TGI [49] | TGI [50] | TGI [59]
